What was measured:
Assay type in all cases: in vivo
[1] = system: barnyardgrass (Echinochloa crus-galli); test: Test Example 6: foliar spray, herbicidal activity index; details: 4 days after application, index 0-10
Description: (§1) A plastic pot having longer side of 27 cm, shorter side of 19 cm and depth of 7 cm was filled with soil and then seeded with large crabgrass (Digitaria sanguinalis) and giant foxtail (Setaria faberi). Nine days after, barnyardgrass (Echinochloa crus-galli) was seeded therein and grown for 15 days in a greenhouse. Further, a plastic pot having longer side of 16.5 cm, shorter side of 12 cm and depth of 7 cm was filled with soil and then seeded with wild oat (Avena fatua), and grown for 18 days in a greenhouse. Then, each of the present compound 1-67 and A was formulated into an emulsifiable concentrate according to Formulation Example 2 and then diluted to the prescribed amount with water containing a spreading agent and the dilution was uniformly sprayed over the foliage of the test plants with a sprayer at a rate of 1000liters per hectare. After the application, the test plants were grown in the greenhouse for 4 days, and the herbicidal activity was examined. (In the Table 12, the test plants are shown as follows.
(§2) Barnyardgrass: B, Large crabgrass: LC, Giant foxtail: GF, Wild oat: W

[2] = system: giant foxtail (Setaria faberi); test: as above; details: 4 days after application, index 0-10
Description: as §1, §2

[3] = system: large crabgrass (Digitaria sanguinalis); test: as above; details: 4 days after application, index 0-10
Description: as §1, §2

[4] = system: wild oat (Avena fatua); test: as above; details: 4 days after application, index 0-10
Description: as §1, §2

[5] = system: large crabgrass (Digitaria sanguinalis); test: Test Example 7: foliar spray, herbicidal activity index; details: 4 days after application, index 0-10
Description: as §1, with “compound 1-45” for “compound 1-67”, “and B” for “and A”, “of 1000 liters” for “of 1000liters”, “Table 13,” for “Table 12,”
as §2

[6] = system: barnyardgrass (Echinochloa crus-galli); test: as above; details: 4 days after application, index 0-10
Description: as §1, with “compound 1-45” for “compound 1-67”, “and B” for “and A”, “of 1000 liters” for “of 1000liters”, “Table 13,” for “Table 12,”
as §2

[7] = system: giant foxtail (Setaria faberi); test: as above; details: 4 days after application, index 0-10
Description: as §1, with “compound 1-45” for “compound 1-67”, “and B” for “and A”, “of 1000 liters” for “of 1000liters”, “Table 13,” for “Table 12,”
as §2

[8] = system: wild oat (Avena fatua); test: as above; details: 4 days after application, index 0-10
Description: as §1, with “compound 1-45” for “compound 1-67”, “and B” for “and A”, “of 1000 liters” for “of 1000liters”, “Table 13,” for “Table 12,”
as §2

[9] = system: johnsongrass (Sorghum halepense); test: Test Example 8: foliar spray, herbicidal activity index; set-up: key: “0” means that there was no or little difference in the degree of germination or growth between the treated and the untreated tested plants at the time of examination; “10” means that the test plants died complete or their germination or growth was completely inhibited; details: foliar spray 373 liters per hectare, examined after 4 days, index 0-10
Description: (§3) A plastic pot having longer side of 16.5 cm, shorter side of 12 cm and depth of 7 cm was filled with soil and then seeded with large crabgrass (Digitaria sanguinalis), giant foxtail (Setaria faberi) and johnsongrass (Sorghum halepense). These test plants were grown in a greenhouse for 25 days. Then, each of the present compound 2-52 and C was formulated into an emulsifiable concentrate according to Formulation Example 2 and then diluted to the prescribed amount with water containing a spreading agent and the dilution was uniformly sprayed over the foliage of the test plants with a sprayer at a rate of 373 liters per hectare. After the application, the test plants were grown in the greenhouse for 4 days, and the herbicidal activity was examined. (In the Table 14, the test plants are shown as follows.
(§4) Large crabgrass: LC, Giant foxtail: GF, Johnsongrass: J

[10] = system: large crabgrass (Digitaria sanguinalis); test: as above; set-up: key: “0” means that there was no or little difference in the degree of germination or growth between the treated and the untreated tested plants at the time of examination; “10” means that the test plants died complete or their germination or growth was completely inhibited; details: foliar spray 373 liters per hectare, examined after 4 days, index 0-10
Description: as §3, §4

[11] = system: giant foxtail (Setaria faberi); test: as above; set-up: key: “0” means that there was no or little difference in the degree of germination or growth between the treated and the untreated tested plants at the time of examination; “10” means that the test plants died complete or their germination or growth was completely inhibited; details: foliar spray 373 liters per hectare, examined after 4 days, index 0-10
Description: as §3, §4

Q: For `COc1cc(OC)nc(Nc2cc(-n3c(=O)cc(C(F)(F)F)n(C)c3=O)c(F)cc2Cl)n1` [A, reference compound], which “Herbicidal activity B” value ([1]; dosage 32 g/ha) is on record?
A: 4

Q: What about the “Herbicidal activity B” value ([1]; dosage 125 g/ha) of the same compound?
A: 4

Q: What about the “Herbicidal activity GF” value ([2]; dosage 32 g/ha) of the same compound?
A: 4

Q: And the “Herbicidal activity GF” value ([2]; dosage 125 g/ha)?
A: 5

Q: And the “Herbicidal activity LC” value ([3]; dosage 32 g/ha)?
A: 6

Q: What about the “Herbicidal activity LC” value ([3]; dosage 125 g/ha) of the same compound?
A: 8

Q: What about the “Herbicidal activity W” value ([4]; dosage 32 g/ha) of the same compound?
A: 2

Q: What about the “Herbicidal activity W” value ([4]; dosage 125 g/ha) of the same compound?
A: 3

Q: `COc1nc(OC)nc(Oc2cc(-n3c(=O)cc(C(F)(F)F)n(C)c3=O)c(F)cc2Cl)n1` [B, reference compound] was tested. Which “Herbicidal activity LC” value ([5]; dosage 32 g/ha) did it give?
A: 8

Q: And the “Herbicidal activity LC” value ([5]; dosage 125 g/ha)?
A: 8

Q: And the “Herbicidal activity B” value ([6]; dosage 32 g/ha)?
A: 6

Q: And the “Herbicidal activity B” value ([6]; dosage 125 g/ha)?
A: 8

Q: What about the “Herbicidal activity GF” value ([7]; dosage 32 g/ha) of the same compound?
A: 6

Q: What about the “Herbicidal activity GF” value ([7]; dosage 125 g/ha) of the same compound?
A: 8

Q: And the “Herbicidal activity W” value ([8]; dosage 32 g/ha)?
A: 6

Q: What about the “Herbicidal activity W” value ([8]; dosage 125 g/ha) of the same compound?
A: 9

Q: How did the “Herbicidal activity J” value ([9]; dosage 32 g/ha) turn out when `CC(=O)Nc1cccnc1Oc1cc(-n2c(=O)cc(C(F)(F)F)n(N)c2=O)c(F)cc1Cl` [C, reference compound] was run?
A: 8

Q: What about the “Herbicidal activity J” value ([9]; dosage 125 g/ha) of the same compound?
A: 10

Q: And the “Herbicidal activity LC” value ([10]; dosage 32 g/ha)?
A: 7

Q: What about the “Herbicidal activity LC” value ([10]; dosage 125 g/ha) of the same compound?
A: 9

Q: And the “Herbicidal activity GF” value ([11]; dosage 32 g/ha)?
A: 6

Q: What about the “Herbicidal activity GF” value ([11]; dosage 125 g/ha) of the same compound?
A: 9

Reference: patent US6537948B1, “Uracil compounds and use thereof” (Sumitomo Chemical Company, Limited, priority 2000, dated 2003)
